In patent US11384078B2, “5,6-fused-bicyclic compounds and compositions for the treatment of parasitic diseases” (NOVARTIS AG, priority 2017, dated 2022):
pEC50: −log10 of the molar value. Read-outs that look alike come from different tables or passages of the source.

Columns and labels:
Assay type in all cases: cell-based
[1] = system: Trypanosoma cruzi amastigotes cultured in 3T3 fibroblast cells; assay: Assay for growth inhibition of kinetoplastid parasite Trypanosoma cruzi (beta-galactosidase Tulahuen strain, CPRG readout); details: Trypanosoma cruzi, Fibroblast, T. cruzi amastigotes in 3T3 fibroblast cells; read-out: Buckner infectious T. cruzi EC50
In short: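 3T3 fibroblasts (1,000 cells/well) plated overnight, treated with compound in DMSO, then infected with 10,000 Lac-Z-expressing Tulahuen trypomastigotes. After 6 days, 0.6 mM CPRG with 0.6% NP-40 added for 2 h at room temperature; absorbance gives relative intracellular amastigote numbers. Benznidazole and nifurtimox serve as positive controls.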

[2] = system: L. donovani HU3 strain in mouse peritoneal macrophages; assay: Assay for inhibition of parasitemia of Leishmania donovani in mouse macrophages (SYBR Green nuclei count, high-content imaging); details: Leishmania donovani, Peritoneal macrophage, L. donovani in mouse peritoneal macrophages; read-out: L. donovani in Mouse Macrophages EC50
In short: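 Parasite numbers were counted from SYBR Green-stained nuclei imaged by high-content microscopy after paraformaldehyde fixation and Triton permeabilization. Before this, compound was applied for 5 days at 37° C to BALB/c peritoneal macrophages (2×10^4/well) that had been exposed 24 h to 4×10^5 L. donovani HU3 amastigotes harvested from infected mouse spleens.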

[3] = system: Trypanosoma brucei brucei (Lister 427) strain; assay: Assay for growth inhibition against Trypanosoma brucei brucei (Cell TiterGlo ATP luminescence); details: T. brucei brucei (Lister 427), read-out: T. Brucei (HAT) EC50
In short: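 Growth read-out is cellular ATP by CellTiter-Glo luminescence, measured 30 min after reagent addition, following 2-day incubation at 37 °C in CO2. Parasites (10,000/mL, HMI-9 plus 10% FBS and 10% serum plus) faced 10 threefold dilutions in duplicate; IC50 taken as 50% growth inhibition versus untreated.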

[4] = system: Leishmania donovani axenic amastigote; assay: In vitro assay for growth inhibition of Leishmania donovani axenic amastigote (Cell TiterGlo luminescence); details: Leishmania donovani, L. donovani axenic amastigotes in vitro; read-out: L. donovani amastigotes EC50
In short: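 Compound-treated wells received 9600 axenic amastigotes in RPMI 1640-based medium at pH 5.5 (37 °C, 5% CO2). Growth measured as ATP luminescence (CellTiter-Glo) after 2-day incubation; DMSO and reference compounds served as controls.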

## O=C(Nc1ccc(F)c(-n2cc3cc(N4CC(C(F)(F)F)C4)cnc3n2)c1)N1CC(F)C1 [Compound 265, 3-fluoro-N-(4-fluoro-3-(5-(3-(trifluoromethyl)azetidin-1-yl)-2H-pyrazolo[3,4-b]pyridin-2-yl)phenyl)azetidine-1-carboxamide]
[1]
  pEC50: 8.70
[2]
  pEC50: 8.40
[3]; Trypanosoma brucei
  pEC50: 9.00
[4]
  pEC50: 8.52

## N#CC1CN(c2cnc3nn(-c4cc(NC(=O)N5CC(F)C5)ccc4F)cc3c2)C1 [Compound 266, N-{3-[5-(3-cyanoazetidin-1-yl)-2H-pyrazolo[3,4-b]pyridin-2-yl]-4-fluorophenyl}-3-fluoroazetidine-1-carboxamide]
[1]
  pEC50: 7.19
[2]
  pEC50: 7.54
[3]; Trypanosoma brucei
  pEC50: 8.30
[4]
  pEC50: 8.10

## CC(=O)N1CCC1c1cnc2nn(-c3cc(NC(=O)N4CC(F)C4)ccc3F)cc2c1 (stereo not shown) [Compound 267, N-(3-(5-(1-acetylazetidin-2-yl)-2H-pyrazolo[3,4-b]pyridin-2-yl)-4-fluorophenyl)-3-fluoroazetidine-1-carboxamide]
[1]
  pEC50: 5.03
[2]
  pEC50: 4.86
[3]; Trypanosoma brucei
  pEC50: 7.09
[4]
  pEC50: 5.77

## O=C(Nc1ccc(F)c(-n2cc3cc(N4CCNCC4)cnc3n2)c1)N1CC(F)C1 [Compound 270, 3-fluoro-N-{4-fluoro-3-[5-(piperazin-1-yl)-2H-pyrazolo[3,4-b]pyridin-2-yl]phenyl}azetidine-1-carboxamide]
[1]
  pEC50: 5.77
[2]
  pEC50: 5.66
[3]; Trypanosoma brucei
  pEC50: 7.10
[4]
  pEC50: 6.63

## O=C(Nc1ccc(F)c(-n2cc3cc(N4CC(C(F)(F)F)C4)cnc3n2)c1)N1CCC1 [Compound 274]
[1]
  pEC50: 9.00
[2]
  pEC50: 8.52
[3]; Trypanosoma brucei
  pEC50: 9.00
[4]
  pEC50: 8.70

## O=C(Nc1ccc(F)c(-n2cc3cc(N4CC(C(F)(F)F)C4)cnc3n2)c1)N1CC[C@@H](F)C1 [Compound 275]
[1]
  pEC50: 9.00
[2]
  pEC50: 8.52
[3]; Trypanosoma brucei
  pEC50: 9.00
[4]
  pEC50: 8.52

## O=C(Nc1ccc(F)c(-n2cc3cc(Cl)cnc3n2)c1)N1CC(F)C1 [Compound 276, N-(3-{5-chloro-2H-pyrazolo[3,4-b]pyridin-2-yl}-4-fluorophenyl)-3-fluoroazetidine-1-carboxamide]
[1]
  pEC50: 7.68
[2]
  pEC50: 7.00
[3]; Trypanosoma brucei
  pEC50: 7.48
[4]
  pEC50: 7.54

## Cc1nc(CO)c(C(=O)Nc2ccc(F)c(-n3cc4cc(-c5ncccc5C)cnc4n3)c2)o1 [Compound 277, N-(4-fluoro-3-(5-(3-methylpyridin-2-yl)-2H-pyrazolo[3,4-b]pyridin-2-yl)phenyl)-4-(hydroxymethyl)-2-methyloxazole-5-carboxamide]
[1]
  pEC50: 6.84
[2]
  pEC50: 6.86
[3]; Trypanosoma brucei
  pEC50: 7.09
[4]
  pEC50: 7.40

## O=C(Nc1ccnc(-n2cc3cc(N4CC(F)(F)C4)cnc3n2)c1)N1CCC1 [Compound 280, N-(2-(5-(3,3-difluoroazetidin-1-yl)-2H-pyrazolo[3,4-b]pyridin-2-yl)pyridin-4-yl)azetidine-1-carboxamide]
[1]
  pEC50: 7.32
[2]
  pEC50: 7.55
[3]; Trypanosoma brucei
  pEC50: 7.40
[4]
  pEC50: 7.48

## O=C(Nc1ccnc(-n2cc3cc(-c4ccccn4)cnc3n2)c1)N1CC(F)(F)C1 [Compound 281, 3,3-difluoro-N-(2-(5-(pyridin-2-yl)-2H-pyrazolo[3,4-b]pyridin-2-yl)pyridin-4-yl)azetidine-1-carboxamide]
[1]
  pEC50: 7.82
[2]
  pEC50: 7.59
[3]; Trypanosoma brucei
  pEC50: 7.85
[4]
  pEC50: 8.05

## O=C(Nc1ccnc(-n2cc3cc(N4CC5(CC5)C4)cnc3n2)c1)N1CCC1 [Compound 282, N-[2-(5-{5-azaspiro[2.3]hexan-5-yl}-2H-pyrazolo[3,4-b]pyridin-2-yl)pyridin-4-yl}azetidine-1-carboxamide]
[1]
  pEC50: 7.40
[2]
  pEC50: 7.15
[3]; Trypanosoma brucei
  pEC50: 7.57
[4]
  pEC50: 7.47

## O=C(Nc1ccc(Cl)c(-n2cc3cc(-c4ccccn4)cnc3n2)c1)N1CC(F)C1 [Compound 283, N-{4-chloro-3-[5-(pyridin-2-yl)-2H-pyrazolo[3,4-b]pyridin-2-yl]phenyl}-3-fluoroazetidine-1-carboxamide]
[1]
  pEC50: 8.30
[2]
  pEC50: 7.72
[3]; Trypanosoma brucei
  pEC50: 8.10
[4]
  pEC50: 8.15

## O=C(Nc1ccc(Cl)c(-n2cc3cc(N4CC(F)(F)C4)cnc3n2)c1)N1CCC1 [Compound 284, N-{4-chloro-3-[5-(3,3-difluoroazetidin-1-yl)-2H-pyrazolo[3,4-b]pyridin-2-yl]phenyl}azetidine-1-carboxamide]
[1]
  pEC50: 7.82
[2]
  pEC50: 7.25
[3]; Trypanosoma brucei
  pEC50: 7.82
[4]
  pEC50: 7.57

## O=C(Nc1ccc(Cl)c(-n2cc3cc(-c4ccccn4)cnc3n2)c1)N1CCC1 [Compound 285, N-{4-chloro-3-[5-(pyridin-2-yl)-2H-pyrazolo[3,4-b]pyridin-2-yl]phenyl}azetidine-1-carboxamide]
[1]
  pEC50: 8.52
[2]
  pEC50: 8.05
[3]; Trypanosoma brucei
  pEC50: 8.40
[4]
  pEC50: 8.40

## O=C(Nc1ccc(Cl)c(-n2cc3cc(N4CC5(CC5)C4)cnc3n2)c1)N1CCC1 [Compound 286, N-[3-(5-{5-azaspiro[2.3]hexan-5-yl}-2H-pyrazolo[3,4-b]pyridin-2-yl)-4-chlorophenyl]azetidine-1-carboxamide]
[1]
  pEC50: 7.85
[2]
  pEC50: 7.33
[3]; Trypanosoma brucei
  pEC50: 7.52
[4]
  pEC50: 7.60

## O=C(Nc1cccc(-n2cc3cc(N4CC5(CC5)C4)cnc3n2)c1)N1CCC1 [Compound 287, N-[3-(5-{5-azaspiro[2.3]hexan-5-yl}-2H-pyrazolo[3,4-b]pyridin-2-yl)phenyl]azetidine-1-carboxamide]
[1]
  pEC50: 7.68
[2]
  pEC50: 7.52
[3]; Trypanosoma brucei
  pEC50: 8.00
[4]
  pEC50: 7.68

## O=C(Nc1ccc(F)c(-n2cc3cc(N4CC(F)(F)C4)cnc3n2)c1)N1CCC1 [Compound 290, N-{3-[5-(3,3-difluoroazetidin-1-yl)-2H-pyrazolo[3,4-b]pyridin-2-yl]-4-fluorophenyl)azetidine-1-carboxamide]
[1]
  pEC50: 8.40
[2]
  pEC50: 8.40
[3]
  pEC50: 8.40
[4]
  pEC50: 8.15

## O=C(Nc1ccc(F)c(-n2cc3cc(N4CC(F)C4)cnc3n2)c1)N1CC(F)C1 [Compound 291, 3-fluoro-N-{4-fluoro-3-[5-(3-fluoroazetidin-1-yl)-2H-pyrazolo[3,4-b]pyridin-2-yl]phenyl}azetidine-1-carboxamide]
[1]
  pEC50: 8.30
[2]
  pEC50: 8.30
[3]
  pEC50: 8.30
[4]
  pEC50: 8.00

## O=C(Nc1ccc(F)c(-n2cc3cc(N4CC(F)C4)cnc3n2)c1)N1CCC1 [Compound 292, N-{4-fluoro-3-[5-(3-fluoroazetidin-1-yl)-2H-pyrazolo[3,4-b]pyridin-2-yl]phenyl}azetidine-1-carboxamide]
[1]
  pEC50: 8.52
[2]
  pEC50: 8.10
[3]
  pEC50: 8.30
[4]
  pEC50: 8.30

## O=C(Nc1ccc(F)c(-n2cc3cc(C4CCNCC4)cnc3n2)c1)N1CC(F)C1 [Compound 293, 3-fluoro-N-{4-fluoro-3-[5-(piperidin-4-yl)-2H-pyrazolo[3,4-b]pyridin-2-yl]phenyl}azetidine-1-carboxamide]
[1]
  pEC50: 5.92
[2]
  pEC50: 4.75
[3]; Trypanosoma brucei
  pEC50: 6.78
[4]
  pEC50: 5.17

## O=C(Nc1ccc(F)c(-n2cc3cc(-c4cnccn4)cnc3n2)c1)N1CC(F)C1 [Compound 294, 3-fluoro-N-{4-fluoro-3-[5-(pyrazin-2-yl)-2H-pyrazolo[3,4-b]pyridin-2-yl]phenyl}azetidine-1-carboxamide]
[1]
  pEC50: 8.30
[2]
  pEC50: 8.40
[3]; Trypanosoma brucei
  pEC50: 8.30
[4]
  pEC50: 8.40

## O=C(Nc1ccc(F)c(-n2cc3cc(-c4c[nH]cn4)cnc3n2)c1)N1CC(F)C1 [Compound 295, 3-fluoro-N-{4-fluoro-3-[5-(1H-imidazol-4-yl)-2H-pyrazolo[3,4-b]pyridin-2-yl]phenyl}azetidine-1-carboxamide]
[1]
  pEC50: 5.37
[2]
  pEC50: 5.70
[3]; Trypanosoma brucei
  pEC50: 7.42
[4]
  pEC50: 6.53

## O=C(Nc1ccc(F)c(-n2cc3cc(C4CCN(Cc5ccccc5)CC4)cnc3n2)c1)N1CC(F)C1 [Compound 296, N-{3-[5-(1-benzylpiperidin-4-yl)-2H-pyrazolo[3,4-b]pyridin-2-yl]-4-fluorophenyl}-3-fluoroazetidine-1-carboxamide]
[1]
  pEC50: 8.30
[2]
  pEC50: 8.70
[3]; Trypanosoma brucei
  pEC50: 8.30
[4]
  pEC50: 6.67

## O=C(Nc1ccc(F)c(-n2cc3cc(N4CC(F)(F)C4)cnc3n2)c1)N1CC(F)C1 [Compound 298, N-{3-[5-(3,3-difluoroazetidin-1-yl)-2H-pyrazolo[3,4-b]pyridin-2-yl]-4-fluorophenyl}-3-fluoroazetidine-1-carboxamide]
[1]
  pEC50: 8.40
[2]
  pEC50: 8.40
[3]; Trypanosoma brucei
  pEC50: 8.40
[4]
  pEC50: 7.85

## O=C(Nc1ccc(F)c(-n2cc3cc(N4CC(F)(F)C4)cnc3n2)c1)N1CC(F)(F)C1 [Compound 299, N-{3-[5-(3,3-difluoroazetidin-1-yl)-2H-pyrazolo[3,4-b]pyridin-2-yl]-4-fluorophenyl}-3,3-difluoroazetidine-1-carboxamide]
[1]
  pEC50: 7.85
[2]
  pEC50: 8.15
[3]; Trypanosoma brucei
  pEC50: 8.30
[4]
  pEC50: 7.54
